IC50 data for 21 compounds are collected here from US20130344026A1, “Dimeric Smac Mimetics” (priority 2009, published 2013).

The structures appear in SMILES notation. *1 amine or outer side, *2 acyl side, *3 side chain or, on linkers, in order; H or OH if unused. Where a SMILES comes first, the peptide text is derived from it. Bridges are numbered along the chain shown (N, C = ends). Roman numbers before positions name the chains, in order. [ ]: non-standard residue; d: D form. Piperazine(1,4-diyl) = C1CN([*:2])CCN1[*:1]; Chg = N[C@H](C(=O)O)C1CCCCC1; Tle = CC(C)(C)[C@H](N)C(=O)O; NMeA = CN[C@@H](C)C(=O)O

The first assay relates to HCC461. The experiment in a line: cell viability assay in HCC461, compound alone. The following applies: HCC461, HCC461; Tables 6-9; read-out: IC50 (μM) in cell viability assay in HCC461. The format is cell-based.
For the compound `CN[C@@H](C)C(=O)NC(C(=O)N1C[C@@H](NC(=O)c2cccc(C(=O)N[C@H]3C[C@@H](C(=O)N[C@H](C)c4ccccc4)N(C(=O)[C@H](CCC(=O)OC)NC(=O)[C@@H](N)CO)C3)c2)CC1C(=O)N[C@@H]1CCCc2ccccc21)C(C)(C)C` (stereo partly drawn) [Compound 153], the half-maximal inhibitory concentration (IC50) came out at 27.6 µM.

Take `CCC[C@H](NC(=O)[C@H](C)NC)C(=O)N1C[C@@H](NC(=O)c2cccc(C(=O)N[C@H]3C[C@@H](C(=O)N[C@@H]4CCCc5ccccc54)N(C(=O)[C@@H](NC(=O)[C@H](C)NC)C(C)(C)C)C3)c2)C[C@H]1C(=O)NC(C)(C)C` [Compound 156]: the IC50 was 0.083 µM.

Turning to `CN[C@@H](C)C(=O)N[C@@H](CCCCNC(=O)c1cccc(C(=O)NCCCC[C@H](NC(=O)[C@H](C)NC)C(=O)N2CCCC[C@H]2C(=O)N[C@@H]2CCCc3ccccc32)c1)C(=O)N1CCCC[C@H]1C(=O)N[C@@H]1CCCc2ccccc21` [Compound 142], the IC50 is over 30 µM.

For the compound `CN[C@@H](C)C(=O)N[C@@H](C)C(=O)N[C@H]1C[C@@H](C(=O)N[C@@H]2CCCc3ccccc32)N(C(=O)[C@@H](NC(=O)[C@H](C)NC)C(C)(C)C)C1` [Compound 146], the 50% inhibitory concentration (IC50) is over 30 µM.

Consider `CN[C@@H](C)C(=O)N[C@@H](CCCCNC(=O)c1cccc(C(=O)N[C@H]2C[C@@H](C(=O)N[C@@H]3CCCc4ccccc43)N(C(=O)[C@@H](NC(=O)[C@H](C)NC)C(C)(C)C)C2)c1)C(=O)N1CCC[C@H]1C(=O)N[C@@H]1CCCc2ccccc21` [Compound 134], for which the IC50 was determined as 0.058 µM.

Consider `CN[C@@H](C)C(=O)N[C@@H](CCC(=O)N[C@H]1CC(C(=O)N[C@H](C)c2ccccc2)N(C(=O)[C@@H](NC(=O)[C@H](C)NC)C(C)(C)C)C1)C(=O)N[C@H](C(=O)N[C@@H](C)C(C)C)C(C)(C)C` (stereo partly drawn) [Compound 164], for which the concentration for half-maximal inhibition (IC50) is over 30 µM.

Still in this assay, the particulars now being: HCC461, HCC461; Tables 15-18; read-out: IC50 (uM) in cell viability assay in HCC461.
In the case of `CN[C@@H](C)C(=O)N[C@H](C(=O)N1CCC[C@H]1C(=O)N[C@H](C(=O)N1CCN(C(=O)[C@@H](NC(=O)[C@@H]2CCCN2C(=O)[C@@H](NC(=O)[C@H](C)NC)C(C)(C)C)C2CCCCC2)CC1)C1CCCCC1)C(C)(C)C` [Compound P4-10] (I: H-[NMeA][Tle]P[Chg] / II: H-[NMeA][Tle]P[Chg]; linker I:C-II:C via Piperazine(1,4-diyl)), the IC50 was 0.26 µM.

Turning to `C[C@@H](C(=O)N[C@@H](CC#CC#CC[C@H](NC(=O)[C@H](C)N(C)C(=O)C(F)(F)F)C(=O)N1CCC[C@H]1C(=O)N[C@@H]1CCCc2ccccc21)C(=O)N1CCC[C@H]1C(=O)N[C@@H]1CCCc2ccccc21)N(C)C(=O)C(F)(F)F` [Compound P2-18], the IC50 turned out to be 0.031 µM.

The assay is the same for the next values; noted with them: HCC461, HCC461 cells, compound alone; read-out: IC50 (uM) in cell viability assay in HCC461.
`CN[C@@H](C)C(=O)N[C@H](C(=O)N1C[C@@H](NC(=O)c2cc(C(=O)N[C@H]3C[C@@H](C(=O)N[C@H](C)c4ccccc4)N(C(=O)[C@@H](NC(=O)[C@H](C)NC)C(C)C)C3)[nH]n2)C[C@H]1C(=O)N[C@H](C)c1ccccc1)C(C)C` [Compound P3-82]: the IC50 came to 0.063 µM.

For `CN[C@@H](C)C(=O)N[C@H](C(=O)N1C[C@@H](NC(=O)c2cc(NC(C)=O)cc(C(=O)N[C@H]3C[C@@H](C(=O)N[C@@H]4CCCc5ccccc54)N(C(=O)[C@@H](NC(=O)[C@H](C)NC)C(C)(C)C)C3)c2)C[C@H]1C(=O)N[C@@H]1CCCc2ccccc21)C(C)(C)C` [Compound P3-42], the IC50 amounted to 0.011 µM.

Consider `CN[C@@H](C)C(=O)N[C@H](C(=O)N1C[C@@H](NC(=O)c2ccc(CNC(=O)CCC(=O)NCc3ccc(C(=O)N[C@H]4C[C@@H](C(=O)NC5CCCc6ccccc65)N(C(=O)[C@@H](NC(=O)[C@H](C)NC)C(C)(C)C)C4)cc3)cc2)C[C@H]1C(=O)NC1CCCc2ccccc21)C(C)(C)C` (single isomer, unassigned) [Compound P3-70], for which the IC50 is 0.06 µM.

In the case of `CN[C@@H](C)C(=O)N[C@H](C(=O)N1C[C@@H](NC(=O)c2cccc(C(=O)N[C@H]3C[C@@H](C(=O)N[C@H](C)c4ccccc4)N(C(=O)[C@@H](NC(=O)[C@H](C)NC)C(C)(C)C)C3)c2)C[C@H]1C(=O)N[C@H](C)c1ccccc1)C(C)(C)C` [Compound P3-50], the IC50 came out at 0.063 µM.

On to `CN[C@@H](C)C(=O)N[C@H](C(=O)N1C[C@@H](NC(=O)CC(C)(C)CC(=O)N[C@H]2C[C@@H](C(=O)N[C@@H]3CCCc4ccccc43)N(C(=O)[C@@H](NC(=O)[C@H](C)NC)C(C)(C)C)C2)C[C@H]1C(=O)N[C@@H]1CCCc2ccccc21)C(C)(C)C` [Compound P3-33], for which the half-inhibitory concentration (IC50) was 0.017 µM.

Consider `CC[C@H](C)C(NC(=O)[C@H](C)NC)C(=O)N1C[C@@H](NC(=O)c2cccc(C(=O)N[C@H]3C[C@@H](C(=O)N(C)[C@H](C)c4ccccc4)N(C(=O)C(NC(=O)[C@H](C)NC)[C@@H](C)CC)C3)c2)C[C@H]1C(=O)N(C)C(C)c1ccccc1` (stereo partly drawn) [Compound P3-68], for which the half-maximal inhibitory concentration (IC50) worked out at 0.025 µM.

With `CN[C@@H](C)C(=O)N[C@H](C(=O)N[C@@H](CCCCCC[C@H](NC(=O)[C@@H](NC(=O)[C@H](C)NC)C(C)(C)C)C(=O)N[C@@H]1CCCc2ccccc21)C(=O)N[C@@H]1CCCc2ccccc21)C(C)(C)C` [Compound P3-65], the IC50 came out at 0.002 µM.

As to `CN[C@@H](C)C(=O)N[C@H](C(=O)N1C[C@@H](NC(=O)CCCCC(=O)N[C@H]2C[C@@H](C(=O)N[C@@H]3CCCc4ccccc43)N(C(=O)[C@@H](NC(=O)[C@H](C)NC)C(C)(C)C)C2)C[C@H]1C(=O)N[C@@H]1CCCc2ccccc21)C(C)(C)C` [Compound P3-22], the 50% inhibitory concentration (IC50) stood at 0.003 µM.

For the compound `CN[C@@H](C)C(=O)N[C@H](C(=O)N1C[C@@H](NC(=O)c2nn[nH]c2C(=O)N[C@H]2C[C@@H](C(=O)NC3CCCc4ccccc43)N(C(=O)[C@@H](NC(=O)[C@H](C)NC)C(C)(C)C)C2)CC1C(=O)N[C@@H]1CCCc2ccccc21)C(C)(C)C` (stereo partly drawn) [Compound P3-26], the half-maximal inhibitory concentration (IC50) was 0.058 µM.

In the case of `CC[C@H](C)[C@H](NC(=O)[C@H](C)NC)C(=O)N1C[C@@H](NC(=O)c2cc(C(=O)N[C@H]3C[C@@H](C(=O)N[C@H](C)c4ccccc4)N(C(=O)[C@@H](NC(=O)[C@H](C)NC)[C@@H](C)CC)C3)[nH]n2)C[C@H]1C(=O)N[C@H](C)c1ccccc1` [Compound P3-69], the IC50 worked out at 0.017 µM.

The same assay, now with this note: HCC461; Tables 6-9; read-out: IC50 (μM) in cell viability assay in HCC461.
Take `CN[C@@H](C)C(=O)N[C@@H](CCC(=O)N[C@H]1CC(C(=O)N[C@@H]2CCc3ccccc3C2)N(C(=O)[C@@H](NC(=O)[C@H](C)NC)C(C)(C)C)C1)C(=O)N[C@H](C(=O)N[C@@H](C)C(C)C)C(C)(C)C` (stereo partly drawn) [Compound 163]: the IC50 is over 30 µM.

For `CN[C@@H](C)C(=O)N[C@H](C(=O)N[C@@H](CCCCNC(=O)c1cccc(C(=O)N[C@H]2CC(C(=O)N[C@@H]3CCc4ccccc4C3)N(C(=O)[C@@H](NC(=O)[C@H](C)NC)C(C)(C)C)C2)c1)C(=O)N[C@@H](C)C(C)C)C(C)(C)C` (stereo partly drawn) [Compound 161], the IC50 amounted to 2.5 µM.

Still in this assay, the particulars now being: HCC461 cells, compound alone; read-out: IC50 (uM) in cell viability assay in HCC461.
On to `CN[C@@H](C)C(=O)N[C@H](C(=O)N1C[C@@H](NC(=O)c2cccc(C(=O)N[C@H]3C[C@@H](C(=O)NC4CCCC5CCCCC54)N(C(=O)[C@@H](NC(=O)[C@H](C)NC)C(C)(C)C)C3)c2)C[C@H]1C(=O)NC1CCCC2CCCCC21)C(C)(C)C` (stereo partly drawn) [Compound P3-60], for which the concentration for half-maximal inhibition (IC50) stood at 0.311 µM.

One may read the IC50 as the point on the concentration scale where inhibition reaches its midpoint.
